Publication PMC6704710, “Preclinical evaluation of 3D185, a novel potent inhibitor of FGFR1/2/3 and CSF-1R, in FGFR-dependent and macrophage-dominant cancer models” (Journal of Experimental & Clinical Cancer Research : CR, 2019)

How the values were obtained:
Assay in all cases: Eurofins kinase panel
Format in all cases: biochemical
SBK1(h) = target: T1, SBK1(h) (Homo sapiens, UniProt Q52WX2); details: read-out: Inhibition rate (%)
T1 construct: purchased Eurofins (KinaseProfiler)

MST2(h) = target: T2, MST2(h) (Homo sapiens, UniProt Q13188); details: read-out: Inhibition rate (%)
T2 construct: purchased Eurofins (KinaseProfiler)
T2 sequence (Q13188 1-491): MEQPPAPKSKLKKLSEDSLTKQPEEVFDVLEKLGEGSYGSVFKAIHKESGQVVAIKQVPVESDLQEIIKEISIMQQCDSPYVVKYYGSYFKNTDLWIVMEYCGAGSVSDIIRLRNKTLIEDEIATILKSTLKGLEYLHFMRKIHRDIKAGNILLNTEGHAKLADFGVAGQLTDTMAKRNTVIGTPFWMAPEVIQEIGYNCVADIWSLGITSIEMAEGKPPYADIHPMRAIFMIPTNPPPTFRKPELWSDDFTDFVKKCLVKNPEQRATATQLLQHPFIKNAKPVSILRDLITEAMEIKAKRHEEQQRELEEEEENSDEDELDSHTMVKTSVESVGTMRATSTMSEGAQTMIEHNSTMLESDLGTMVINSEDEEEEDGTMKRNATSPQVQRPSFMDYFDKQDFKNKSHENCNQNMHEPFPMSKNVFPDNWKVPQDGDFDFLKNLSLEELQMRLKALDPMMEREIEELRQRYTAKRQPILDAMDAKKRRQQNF

Met(M1268T)(h) = target: T3, Met(M1268T)(h) (Homo sapiens, UniProt P08581, M1250T); details: read-out: Inhibition rate (%)
T3 construct: purchased Eurofins (KinaseProfiler)

mTOR(h) = target: T4, mTOR(h) (Homo sapiens, UniProt P42345); details: read-out: Inhibition rate (%)
T4 construct: purchased Eurofins (KinaseProfiler)

TrkC(h) = target: T5, TrkC(h) (Homo sapiens, UniProt Q16288); details: read-out: Inhibition rate (%)
T5 construct: purchased Eurofins (KinaseProfiler)
T5 sequence (Q16288 32-839): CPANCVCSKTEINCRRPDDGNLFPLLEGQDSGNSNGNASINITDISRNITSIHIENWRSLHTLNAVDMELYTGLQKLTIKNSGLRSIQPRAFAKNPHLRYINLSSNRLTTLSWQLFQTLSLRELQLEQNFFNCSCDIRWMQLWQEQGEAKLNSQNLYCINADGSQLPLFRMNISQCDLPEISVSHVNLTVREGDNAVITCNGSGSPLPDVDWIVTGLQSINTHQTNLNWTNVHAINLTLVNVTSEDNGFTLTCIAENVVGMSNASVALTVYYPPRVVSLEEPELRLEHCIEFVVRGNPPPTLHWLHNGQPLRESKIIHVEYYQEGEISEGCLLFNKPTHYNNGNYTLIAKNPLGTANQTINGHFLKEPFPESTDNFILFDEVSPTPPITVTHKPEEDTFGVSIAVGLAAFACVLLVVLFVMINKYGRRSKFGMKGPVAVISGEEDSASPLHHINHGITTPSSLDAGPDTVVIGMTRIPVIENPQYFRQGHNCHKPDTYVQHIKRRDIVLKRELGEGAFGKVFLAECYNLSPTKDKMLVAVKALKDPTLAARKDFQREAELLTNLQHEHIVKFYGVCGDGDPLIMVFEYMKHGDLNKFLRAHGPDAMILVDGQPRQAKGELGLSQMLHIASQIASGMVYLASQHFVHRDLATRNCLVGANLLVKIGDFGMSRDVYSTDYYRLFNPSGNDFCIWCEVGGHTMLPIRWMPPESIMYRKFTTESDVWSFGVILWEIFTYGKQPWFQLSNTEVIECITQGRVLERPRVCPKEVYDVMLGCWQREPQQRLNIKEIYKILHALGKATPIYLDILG

PDK1(h) = target: T6, PDK1(h) (Homo sapiens, UniProt O15530); details: read-out: Inhibition rate (%)
T6 construct: purchased Eurofins (KinaseProfiler)
T6 sequence (O15530 1-556): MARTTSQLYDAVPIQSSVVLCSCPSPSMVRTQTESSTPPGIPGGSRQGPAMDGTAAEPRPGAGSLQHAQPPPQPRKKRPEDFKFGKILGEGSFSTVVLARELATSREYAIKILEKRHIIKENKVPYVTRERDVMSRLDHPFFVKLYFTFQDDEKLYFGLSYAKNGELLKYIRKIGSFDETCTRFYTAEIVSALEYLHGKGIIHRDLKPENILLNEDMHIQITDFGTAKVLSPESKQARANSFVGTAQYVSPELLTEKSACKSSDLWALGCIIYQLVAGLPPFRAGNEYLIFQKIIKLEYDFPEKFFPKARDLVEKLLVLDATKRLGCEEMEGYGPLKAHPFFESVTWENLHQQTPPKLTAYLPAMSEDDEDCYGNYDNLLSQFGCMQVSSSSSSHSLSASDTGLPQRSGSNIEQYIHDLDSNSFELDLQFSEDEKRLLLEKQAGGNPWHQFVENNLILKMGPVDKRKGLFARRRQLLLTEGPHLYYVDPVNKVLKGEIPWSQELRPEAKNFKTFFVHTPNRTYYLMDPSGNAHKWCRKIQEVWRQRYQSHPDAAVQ

TTBK2(h) = target: T7, TTBK2(h) (Homo sapiens, UniProt Q6IQ55); details: read-out: Inhibition rate (%)
T7 construct: purchased Eurofins (KinaseProfiler)

PIP5K1α(h) = target: T8, PIP5K1α(h) (Homo sapiens, UniProt Q99755); details: read-out: Inhibition rate (%)
T8 construct: purchased Eurofins (KinaseProfiler)
T8 sequence (Q99755 whole entry): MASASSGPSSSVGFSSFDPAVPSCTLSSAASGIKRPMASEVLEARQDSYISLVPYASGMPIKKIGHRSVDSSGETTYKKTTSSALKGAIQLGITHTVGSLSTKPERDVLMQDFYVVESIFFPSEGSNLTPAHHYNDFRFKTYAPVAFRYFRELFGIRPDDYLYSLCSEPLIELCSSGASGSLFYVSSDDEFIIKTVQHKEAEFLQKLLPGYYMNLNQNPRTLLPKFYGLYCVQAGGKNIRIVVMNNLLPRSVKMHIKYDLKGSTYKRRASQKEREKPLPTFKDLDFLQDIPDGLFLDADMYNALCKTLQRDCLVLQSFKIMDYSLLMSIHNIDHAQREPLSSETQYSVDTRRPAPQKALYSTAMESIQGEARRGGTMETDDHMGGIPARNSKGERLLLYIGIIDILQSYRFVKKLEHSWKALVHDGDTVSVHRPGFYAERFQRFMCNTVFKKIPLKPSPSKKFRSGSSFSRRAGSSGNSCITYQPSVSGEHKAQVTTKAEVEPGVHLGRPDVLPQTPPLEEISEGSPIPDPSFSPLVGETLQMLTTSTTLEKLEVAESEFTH

GRK5(h) = target: T9, GRK5(h) (Homo sapiens, UniProt P34947); details: read-out: Inhibition rate (%)
T9 construct: purchased Eurofins (KinaseProfiler)

PRK1(h) = target: T10, PRK1(h) (Homo sapiens, UniProt Q16512); details: read-out: Inhibition rate (%)
T10 construct: purchased Eurofins (KinaseProfiler)
T10 sequence (Q16512 whole entry): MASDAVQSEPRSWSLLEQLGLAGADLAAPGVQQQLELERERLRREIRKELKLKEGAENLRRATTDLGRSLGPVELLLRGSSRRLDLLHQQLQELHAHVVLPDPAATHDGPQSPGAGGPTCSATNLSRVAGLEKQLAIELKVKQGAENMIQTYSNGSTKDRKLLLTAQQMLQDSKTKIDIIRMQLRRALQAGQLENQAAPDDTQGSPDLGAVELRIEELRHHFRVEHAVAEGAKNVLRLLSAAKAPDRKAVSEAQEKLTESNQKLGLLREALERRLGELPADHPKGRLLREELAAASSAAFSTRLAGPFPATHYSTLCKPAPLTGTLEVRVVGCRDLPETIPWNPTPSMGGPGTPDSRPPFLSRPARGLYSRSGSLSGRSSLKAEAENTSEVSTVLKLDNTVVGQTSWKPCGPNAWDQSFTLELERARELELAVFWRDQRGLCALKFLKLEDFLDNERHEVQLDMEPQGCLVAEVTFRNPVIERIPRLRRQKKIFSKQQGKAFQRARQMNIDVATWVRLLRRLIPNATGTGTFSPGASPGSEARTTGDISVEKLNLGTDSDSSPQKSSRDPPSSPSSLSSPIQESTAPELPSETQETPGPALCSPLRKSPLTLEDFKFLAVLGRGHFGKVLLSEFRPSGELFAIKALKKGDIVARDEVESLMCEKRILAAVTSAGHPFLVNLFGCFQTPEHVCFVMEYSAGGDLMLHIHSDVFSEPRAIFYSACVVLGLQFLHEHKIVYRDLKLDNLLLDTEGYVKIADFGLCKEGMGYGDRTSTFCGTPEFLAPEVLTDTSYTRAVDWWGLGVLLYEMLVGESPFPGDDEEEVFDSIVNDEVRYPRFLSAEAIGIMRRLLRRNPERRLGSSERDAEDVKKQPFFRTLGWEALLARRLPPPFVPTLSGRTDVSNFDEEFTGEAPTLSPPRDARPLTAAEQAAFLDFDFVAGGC

ZAK(h) = target: T11, ZAK(h) (Homo sapiens, UniProt Q9NYL2); details: read-out: Inhibition rate (%)
T11 construct: purchased Eurofins (KinaseProfiler)
T11 sequence (Q9NYL2 whole entry): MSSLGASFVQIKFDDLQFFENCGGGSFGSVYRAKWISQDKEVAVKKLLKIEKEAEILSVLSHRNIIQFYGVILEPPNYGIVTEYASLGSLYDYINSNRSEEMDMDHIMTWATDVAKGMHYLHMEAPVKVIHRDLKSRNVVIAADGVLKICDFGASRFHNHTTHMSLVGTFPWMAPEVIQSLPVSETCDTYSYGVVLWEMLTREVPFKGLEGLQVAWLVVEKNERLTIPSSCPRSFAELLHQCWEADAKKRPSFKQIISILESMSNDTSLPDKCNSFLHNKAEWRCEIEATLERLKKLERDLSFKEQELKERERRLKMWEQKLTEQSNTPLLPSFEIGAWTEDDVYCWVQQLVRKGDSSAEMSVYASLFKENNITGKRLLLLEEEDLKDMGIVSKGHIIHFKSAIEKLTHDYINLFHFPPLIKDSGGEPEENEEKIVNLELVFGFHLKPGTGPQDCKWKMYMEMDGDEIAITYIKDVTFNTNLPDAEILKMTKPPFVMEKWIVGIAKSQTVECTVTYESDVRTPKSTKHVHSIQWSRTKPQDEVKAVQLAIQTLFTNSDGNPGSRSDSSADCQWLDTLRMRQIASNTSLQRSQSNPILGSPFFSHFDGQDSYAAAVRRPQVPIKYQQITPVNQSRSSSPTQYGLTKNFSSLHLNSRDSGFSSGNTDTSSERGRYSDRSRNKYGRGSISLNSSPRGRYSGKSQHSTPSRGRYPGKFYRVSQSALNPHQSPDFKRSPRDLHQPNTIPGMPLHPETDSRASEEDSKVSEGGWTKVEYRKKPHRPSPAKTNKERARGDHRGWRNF

IGF-1R(h), activated = target: T12, IGF-1R(h), activated (Homo sapiens, UniProt P08069); details: read-out: Inhibition rate (%)
T12 construct: purchased Eurofins (KinaseProfiler)
T12 sequence (P08069 31-1367): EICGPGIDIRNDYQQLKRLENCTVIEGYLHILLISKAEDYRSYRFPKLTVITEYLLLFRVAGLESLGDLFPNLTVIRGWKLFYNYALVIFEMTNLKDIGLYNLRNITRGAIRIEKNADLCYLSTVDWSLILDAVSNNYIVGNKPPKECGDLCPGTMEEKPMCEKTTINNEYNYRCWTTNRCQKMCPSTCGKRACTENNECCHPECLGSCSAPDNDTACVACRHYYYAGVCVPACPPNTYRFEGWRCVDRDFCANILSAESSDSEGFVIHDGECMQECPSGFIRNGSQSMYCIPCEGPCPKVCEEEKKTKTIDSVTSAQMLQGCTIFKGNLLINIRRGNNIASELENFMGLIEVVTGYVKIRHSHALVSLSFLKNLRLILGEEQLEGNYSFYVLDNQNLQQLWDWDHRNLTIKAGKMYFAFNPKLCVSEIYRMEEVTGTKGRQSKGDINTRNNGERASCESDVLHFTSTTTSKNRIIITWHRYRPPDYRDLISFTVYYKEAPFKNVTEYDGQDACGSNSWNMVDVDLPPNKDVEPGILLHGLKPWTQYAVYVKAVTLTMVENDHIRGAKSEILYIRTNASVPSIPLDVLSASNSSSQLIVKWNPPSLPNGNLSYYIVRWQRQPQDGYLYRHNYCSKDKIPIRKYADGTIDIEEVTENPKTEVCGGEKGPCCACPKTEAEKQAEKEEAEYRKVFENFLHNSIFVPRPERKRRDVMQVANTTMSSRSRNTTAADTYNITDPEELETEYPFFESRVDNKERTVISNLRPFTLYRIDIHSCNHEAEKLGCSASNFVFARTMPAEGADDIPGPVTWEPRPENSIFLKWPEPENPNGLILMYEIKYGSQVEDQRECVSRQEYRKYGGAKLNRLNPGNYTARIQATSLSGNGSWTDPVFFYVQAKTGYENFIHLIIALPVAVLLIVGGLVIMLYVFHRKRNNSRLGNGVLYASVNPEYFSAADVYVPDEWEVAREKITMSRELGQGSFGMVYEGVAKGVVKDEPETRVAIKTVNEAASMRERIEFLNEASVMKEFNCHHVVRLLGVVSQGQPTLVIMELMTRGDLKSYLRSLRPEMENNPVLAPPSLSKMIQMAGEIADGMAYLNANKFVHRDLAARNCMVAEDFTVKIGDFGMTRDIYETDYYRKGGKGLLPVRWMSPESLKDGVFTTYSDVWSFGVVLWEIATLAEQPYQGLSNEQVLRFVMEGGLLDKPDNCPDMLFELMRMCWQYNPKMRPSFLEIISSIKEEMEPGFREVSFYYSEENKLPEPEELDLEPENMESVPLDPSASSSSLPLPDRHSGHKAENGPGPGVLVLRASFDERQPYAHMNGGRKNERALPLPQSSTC

ROCK-II(r) = test system: ROCK-II(r)
SIK3(h) = target: T13, SIK3(h) (Homo sapiens, UniProt Q9Y2K2); details: read-out: Inhibition rate (%)
T13 construct: purchased Eurofins (KinaseProfiler)

PrKX(h) = target: T14, PrKX(h) (Homo sapiens, UniProt P51817); details: read-out: Inhibition rate (%)
T14 construct: purchased Eurofins (KinaseProfiler)
T14 sequence (P51817 1-358): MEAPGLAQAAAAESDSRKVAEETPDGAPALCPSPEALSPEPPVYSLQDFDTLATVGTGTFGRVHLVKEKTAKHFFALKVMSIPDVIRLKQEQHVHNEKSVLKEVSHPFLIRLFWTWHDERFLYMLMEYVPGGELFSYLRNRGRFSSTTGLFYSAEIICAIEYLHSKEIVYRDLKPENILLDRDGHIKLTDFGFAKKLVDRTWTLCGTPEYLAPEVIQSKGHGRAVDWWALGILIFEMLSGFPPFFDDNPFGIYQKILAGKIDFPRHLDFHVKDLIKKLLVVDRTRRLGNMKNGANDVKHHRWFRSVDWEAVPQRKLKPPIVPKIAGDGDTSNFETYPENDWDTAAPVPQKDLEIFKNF

T1 sequence (Q52WX2 whole entry): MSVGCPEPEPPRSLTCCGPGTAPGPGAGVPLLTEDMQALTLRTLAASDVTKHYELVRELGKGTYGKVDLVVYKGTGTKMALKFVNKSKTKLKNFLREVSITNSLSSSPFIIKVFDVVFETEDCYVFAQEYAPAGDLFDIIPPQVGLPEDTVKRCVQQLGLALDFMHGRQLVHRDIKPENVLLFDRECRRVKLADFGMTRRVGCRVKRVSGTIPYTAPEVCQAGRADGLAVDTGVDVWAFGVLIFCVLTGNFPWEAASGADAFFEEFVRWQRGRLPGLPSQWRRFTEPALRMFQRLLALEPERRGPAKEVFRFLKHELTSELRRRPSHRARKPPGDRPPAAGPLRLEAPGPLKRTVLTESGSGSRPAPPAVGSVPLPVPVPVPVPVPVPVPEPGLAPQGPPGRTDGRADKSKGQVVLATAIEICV

**Q.** `COc1cc(OC)c(Cl)c(-c2ccc3c(NC(=O)c4ccc(N5CCNC(C)(C)C5)cc4)n[nH]c3n2)c1Cl` [3D185] was tested. Which inhibition at 0.01 µM (SBK1(h); 10 nM) did it give?
**A.** -13%

**Q.** What about the inhibition at 0.1 µM (SBK1(h); 100 nM) of the same compound?
**A.** -3%

**Q.** What about the inhibition at 1 µM (SBK1(h); 1000 nM) of the same compound?
**A.** -10%

**Q.** And the inhibition at 0.01 µM (MST2(h); 10 nM)?
**A.** 16%

**Q.** What about the inhibition at 0.1 µM (MST2(h); 100 nM) of the same compound?
**A.** 41%

**Q.** And the inhibition at 1 µM (MST2(h); 1000 nM)?
**A.** 65%

**Q.** And the inhibition at 0.01 µM (Met(M1268T)(h); 10 nM)?
**A.** -12%

**Q.** And the inhibition at 0.1 µM (Met(M1268T)(h); 100 nM)?
**A.** -11%

**Q.** And the inhibition at 1 µM (Met(M1268T)(h); 1000 nM)?
**A.** 15%

**Q.** And the inhibition at 0.01 µM (mTOR(h); 10 nM)?
**A.** -2%

**Q.** What about the inhibition at 0.1 µM (mTOR(h); 100 nM) of the same compound?
**A.** -2%

**Q.** What about the inhibition at 1 µM (mTOR(h); 1000 nM) of the same compound?
**A.** 4%

**Q.** What about the inhibition at 0.01 µM (TrkC(h); 10 nM) of the same compound?
**A.** 36%

**Q.** What about the inhibition at 0.1 µM (TrkC(h); 100 nM) of the same compound?
**A.** 85%

**Q.** And the inhibition at 1 µM (TrkC(h); 1000 nM)?
**A.** 98%

**Q.** And the inhibition at 0.01 µM (PDK1(h); 10 nM)?
**A.** -5%

**Q.** And the inhibition at 0.1 µM (PDK1(h); 100 nM)?
**A.** -14%

**Q.** And the inhibition at 1 µM (PDK1(h); 1000 nM)?
**A.** -4%

**Q.** What about the inhibition at 0.01 µM (TTBK2(h); 10 nM) of the same compound?
**A.** -4%

**Q.** And the inhibition at 0.1 µM (TTBK2(h); 100 nM)?
**A.** -11%

**Q.** What about the inhibition at 1 µM (TTBK2(h); 1000 nM) of the same compound?
**A.** -9%

**Q.** What about the inhibition at 0.01 µM (PIP5K1α(h); 10 nM) of the same compound?
**A.** -1%

**Q.** And the inhibition at 0.1 µM (PIP5K1α(h); 100 nM)?
**A.** -4%

**Q.** And the inhibition at 1 µM (PIP5K1α(h); 1000 nM)?
**A.** -9%

**Q.** What about the inhibition at 0.01 µM (GRK5(h); 10 nM) of the same compound?
**A.** -1%

**Q.** What about the inhibition at 0.1 µM (GRK5(h); 100 nM) of the same compound?
**A.** -9%

**Q.** And the inhibition at 1 µM (GRK5(h); 1000 nM)?
**A.** 3%

**Q.** And the inhibition at 0.01 µM (PRK1(h); 10 nM)?
**A.** 2%

**Q.** And the inhibition at 0.1 µM (PRK1(h); 100 nM)?
**A.** 1%

**Q.** And the inhibition at 1 µM (PRK1(h); 1000 nM)?
**A.** 2%

**Q.** What about the inhibition at 0.01 µM (ZAK(h); 10 nM) of the same compound?
**A.** 1%

**Q.** And the inhibition at 0.1 µM (ZAK(h); 100 nM)?
**A.** -2%

**Q.** What about the inhibition at 1 µM (ZAK(h); 1000 nM) of the same compound?
**A.** 8%

**Q.** What about the inhibition at 0.01 µM (IGF-1R(h), activated; 10 nM) of the same compound?
**A.** -12%

**Q.** And the inhibition at 0.1 µM (IGF-1R(h), activated; 100 nM)?
**A.** 6%

**Q.** What about the inhibition at 1 µM (IGF-1R(h), activated; 1000 nM) of the same compound?
**A.** 49%

**Q.** What about the “Inhibition rate (%)” value (ROCK-II(r); 10 nM) of the same compound?
**A.** -3%

**Q.** And the “Inhibition rate (%)” value (ROCK-II(r); 100 nM)?
**A.** 0%

**Q.** What about the “Inhibition rate (%)” value (ROCK-II(r); 1000 nM) of the same compound?
**A.** -1%

**Q.** And the inhibition at 0.01 µM (SIK3(h); 10 nM)?
**A.** -4%

**Q.** What about the inhibition at 0.1 µM (SIK3(h); 100 nM) of the same compound?
**A.** -1%

**Q.** What about the inhibition at 1 µM (SIK3(h); 1000 nM) of the same compound?
**A.** -2%

**Q.** What about the inhibition at 0.01 µM (PrKX(h); 10 nM) of the same compound?
**A.** 8%

**Q.** What about the inhibition at 0.1 µM (PrKX(h); 100 nM) of the same compound?
**A.** 11%

**Q.** What about the inhibition at 1 µM (PrKX(h); 1000 nM) of the same compound?
**A.** 5%
